Consider 4 compounds from US20090093471A1, “Methods of Treating Nervous Disorders” (priority 2005, published 2009).

For test [1], the target named is T1, BACE1 (Homo sapiens, UniProt P56817).
T1 construct: expressed in transfected cells; host or cells: HEK293
Kind of test: Cellular BACE activity, HEK293 cells stably expressing BACE1. The format is cell-based. As to conditions: cells incubated 24 hours with compound 38 at 2, 10 or 20 μM. From the text:
(§1) The human BACE1 cDNA was generated by RT-PCR from human brain mRNA samples (Biocat, Germany) and cloned into pcDNA3 expression vector. Subsequently, a HEK293 cell line stably expressing BACE1 was generated and used as a source of BACE1. An in vitro assay was developed based on previous studies (Ermolieff, J., Loy, J. A., Koelsch, G., and Tang, J. (2000) Biochemistry 39, 12450-12456) using a quenched fluorogenic substrate containing the Swedish mutation MCA-[…](DNP)-CONH2 (Substrate V, Calbiochem). Proteins were extracted in 20 mM MES/1% Triton X100 plus protease inhibitor cocktail by incubation on ice for 30 minutes. The assay was carried out in black 96 well plates (ATGC) in a volume of 200 μl reaction buffer (25 mM MES/25 mM Sodium Acetate/25 mM Tris, pH 4.4), containing 25 μl of the preparation plus 15 μM peptide Substrate V. Excitation was performed at 320 nm and the reaction kinetics were monitored by measuring the fluorescence emission at 420 nm on a Fluoroscan Ascent FL plate reader (Thermo LabSystems). Controls included purified recombinant human BACE501 protein (R&D Systems) diluted at 1 μg/well in 200 μl of 0.1 M Na Acetate buffer (pH 4.4), the BACE substrate analog inhibitor III (H-Glu-Val-Asn-Statine-Val-Ala-Glu-Phe-NH2, Calbiochem), or substrate alone, and background fluorescence was subtracted to recorded BACE activitiy. […]

Test [2] deals with T2, recombinant human BACE protein (Homo sapiens, UniProt P56817).
T2 construct: purchased R&D Systems
T2 sequence (P56817 46-501): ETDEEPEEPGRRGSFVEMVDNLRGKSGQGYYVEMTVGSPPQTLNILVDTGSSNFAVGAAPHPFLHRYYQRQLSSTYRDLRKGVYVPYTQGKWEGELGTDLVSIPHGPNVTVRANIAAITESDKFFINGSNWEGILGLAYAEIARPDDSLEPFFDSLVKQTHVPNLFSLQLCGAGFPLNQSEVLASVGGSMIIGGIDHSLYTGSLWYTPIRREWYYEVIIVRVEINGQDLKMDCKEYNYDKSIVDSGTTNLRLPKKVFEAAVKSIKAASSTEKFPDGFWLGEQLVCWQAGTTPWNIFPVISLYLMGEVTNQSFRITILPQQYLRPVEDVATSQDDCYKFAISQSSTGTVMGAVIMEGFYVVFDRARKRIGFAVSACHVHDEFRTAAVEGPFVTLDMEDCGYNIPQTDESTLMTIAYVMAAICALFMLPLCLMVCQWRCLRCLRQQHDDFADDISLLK
Kind of test: BACE fluorogenic assay with recombinant protein. In kind it is biochemical. As to conditions: recombinant human BACE 1 μg/well, pH4.4; compound 38 at 2, 10 or 20 μM and higher.
Description: as §1

In test [3] the test system is γ-secretase. Briefly: γ-Secretase assay, compound added to solubilized γ-secretase preparations. In kind it is biochemical. Particulars: control inhibitors; DAPT at 2 μM. Here is the method:
We implemented a an assay allowing de novo Aβ generation in vitro, using cell membranes as the source of γ-secretase. Preparation of solubilized γ-secretase fractions was performed essentially as described previously (Li, Y. M., Lai, M. T., Xu, M., Huang, Q., DiMuzio-Mower, J., Sardana, M. K., Shi, X. P., Yin, K. C., Shafer, J. A., and Gardell, S. J. (2000) Proc. Natl. Acad. Sci. U.S.A. 97, 6138-6143) with the above modifications. All incubations were performed in the presence of Complete Protease Inhibitor Cocktail. Confluent plates swAPP-HEK293 cells were lysed in 1 ml of ice-cold CelLytic-M (Sigma) and incubated 15 minutes at 4° C. on a shaker. Cell debris and nuclei were removed by centrifugation at 1000×g for 15 min at 4° C. For membrane isolation, the supernatant solutions were centrifuged at 20,000×g for 1 hour at 4° C. After centrifugation, the ensuing pellets were resuspended in 100 μl activity buffer (150 mM Na Citrate, pH 6.4)/cells plate and were defined as solubilized γ-secretase, as previously shown by Pinnix et al. (2001). Solubilized γ-secretase activity was induced at 37° C. for 2 h with or without the indicated treatments and Aβ 40 generated de novo was quantified by ELISA. Control experiments used the internally quenched fluorogenic γ-secretase substrate NMA-[…](DNP)-DRDRDR-NH2 (λex=355 nm; λem=440 nm) from Calbiochem, which contains the C-terminal β-APP amino acid sequence that is cleaved by γ-secretase and the γ-secretase inhibitor N—[N-(3,5-Difluorophenacetyl-L-alanyl)]-S-phenylglycine t-Butyl Ester (DAPT, Calbiochem).
To test this hypothesis, we used an established γ-secretase assay allowing de novo Aβ generation in vitro, using cell membranes as the source of γ-secretase. Solubilized γ-secretase fractions are activated in a γ-secretase buffer (see experimental procedures) and activity is monitored following either the cleavage of an internally quenched fluorogenic γ-secretase substrate, or endogenous C99 itself. The well characterized cell permeable γ-secretase inhibitor DAPT (Lanzn, T. A., Himesn, C. S., Pallanten, G., Adamsn, L., Yamazakin, S., Amoren, B., and Merchantn, K. M. (2003) J. Pharmacol. Exp. Ther. 305, 864-871) is included as control. C99 cleavage by γ-secretase was measured by de novo Aβ 40 generation. De novo Aβ 40 production increased with time and was optimal at 37° C. (FIG. 4 B). […] When temperature decreased, Aβ 40 generation decreased in parallel and was abolished at 4° C., in accordance with an enzymatic processing. […] (data not shown).

The subject of test [4] is Notch-1 (NotchΔE) cleavage. Kind of test: NotchΔE transfection and Notch-1 cleavage assay in Hela cells. Particulars: Hela cells overexpressing NotchΔE, up to 16 hours; DAPT 2 μM.
The subject of test [5] is Aβ 40 and Aβ 42 production in swAPP-HEK293 cells. Kind of test: Secreted Aβ 40 and Aβ 42 ELISA, swAPP-HEK293 cells. In kind it is cell-based, human. From the text:
Human APP harbouring the “Swedish” mutation (swAPP) is more prone to processing than wtAPP.
(In general: In an ELISA, binding on a coated surface is turned into a signal by an enzyme label.)

Test [6] has as its target Rac1 (Homo sapiens, UniProt P63000). Briefly: Endogenous Rac GTPase activation assay (GST-Pak-PBD pull-down of GTP-Rac1) in U87-MG cells. As to conditions: qualitative.
Description: U87-MG cells were grown in a 150-mm-diameter dish until they reached 80% confluency. The cells were then treated with the test compounds or the solvent only. Cells were then lyzed in a buffer containing 0.5% triton, 10 mM Tris pH7.5, mM KCl, 120 mM NaCl and 1.8 mM CaCl2. Lysates were clarified, the protein concentrations were normalized, and the GTP-bound Rac1 in the lysates were measured using the Rac Activation Assay Biochem kit (Cytoskeleton) as per manufacturer's recommendations.
We used a GST-fusion protein containing the p21-binding domain (PBD) of human p21-activated kinase 1 (Pak1) to affinity precipitate endogenous active Rac1 (GTP-Rac1) from cell lysates to monitor the activation of the small GTPase Rac1.
Test [7] relates to γ-secretase. Briefly: γ-Secretase assay, de novo Aβ generation from membranes of compound-treated cells. The format is cell-based. Particulars: cells incubated with compound for 16 hours. As for the experimental part:
We implemented a an assay allowing de novo Aβ generation in vitro, using cell membranes as the source of γ-secretase. Preparation of solubilized γ-secretase fractions was performed essentially as described previously (Li, Y. M., Lai, M. T., Xu, M., Huang, Q., DiMuzio-Mower, J., Sardana, M. K., Shi, X. P., Yin, K. C., Shafer, J. A., and Gardell, S. J. (2000) Proc. Natl. Acad. Sci. U.S.A. 97, 6138-6143) with the above modifications. All incubations were performed in the presence of Complete Protease Inhibitor Cocktail. Confluent plates swAPP-HEK293 cells were lysed in 1 ml of ice-cold CelLytic-M (Sigma) and incubated 15 minutes at 4° C. on a shaker. Cell debris and nuclei were removed by centrifugation at 1000×g for 15 min at 4° C. […] Solubilized γ-secretase activity was induced at 37° C. for 2 h with or without the indicated treatments and Aβ 40 generated de novo was quantified by ELISA. […]
To test this hypothesis, we used an established γ-secretase assay allowing de novo Aβ generation in vitro, using cell membranes as the source of γ-secretase. Solubilized γ-secretase fractions are activated in a γ-secretase buffer (see experimental procedures) and activity is monitored following either the cleavage of an internally quenched fluorogenic γ-secretase substrate, or endogenous C99 itself. […] C99 cleavage by γ-secretase was measured by de novo Aβ 40 generation. […]

Test [8] relates to intracellular Aβ 40 and Aβ 42 in swAPP-HEK293 cells. Briefly: Intracellular (cell-associated) Aβ 40 and Aβ 42 ELISA, swAPP-HEK293 cells. In kind it is cell-based, human. As to conditions: qualitative.
Test [9] relates to Aβ 40 production in SH-SY5Y cells. Particulars: qualitative.
Description: Cells were treated 48 hours after plating in 10 cm plates with various concentrations of the indicated molecules, or DMSO as the vehicle for 16 hours. To do so, medium was replaced with 5 ml of new medium in which treatments were performed. Total DMSO dilution was 1/1000 in all cases. Cells were allowed to secrete in 5 ml medium for 7 hours in the presence of 1 μM phosphoramidon.
Stably transfected swAPP-HEK293 cells were incubated for 7 hours in the presence of phosphoramidon (1 μM) (Sigma). Media and cell lysates were collected as above, centrifuged, normalized to total protein and assayed for Aβ 40 and Aβ 42 by sandwich ELISA according to the manufacturer's instructions (Biosource International). For Aβ 42 detection, samples were concentrated on YM3 Microcon columns (Millipore). […] Right cortices were homogenized for 3 h at room temperature in 5M Guanidine-Hcl, 50 mM Tris-Hcl, pH8 with a protease inhibitor mixture (Roche Diagnostics). Tissue homogenates were diluted 1:1 (v/v) in BSAT-DPBS buffer (Dulbecco's phosphate buffered saline with 5% BSA and 0.03% Tween-20), pH 7.4, and were centrifuged at 20,000 g for 20 min at 4° C. Supernatants were diluted 1:1 (v/v) in ELISA kit sample buffer, normalized to total protein and assayed for Aβ 40 and Aβ 42 by sandwich ELISA according to the manufacturer's instructions. […]
In test [10] the test system is constitutively active mutant Rac1-Val12 (RACV12). Briefly: Transient expression luciferase reporter assays in NIH3T3 cells cotransfected with RacV12. As to conditions: c-Jun, NF-KB and cyclin D1 reporter constructs; qualitative. (A reporter such as luciferase makes a cellular process visible.)
Description: Briefly, 250,000 NIH3T3 cells/well were seeded in 6-well plates and were co-transfected 24 h later with plasmids prK5-RacV12 and reporter constructs using LipofectAMINE Plus (Invitrogen). Compound of interest was added after the incubation with LipofectAmine. 24 h after transfection, cells were starved for an additional 24 h with Dulbecco's modified Eagle medium supplemented with 0.5% FBS together with the appropriate doses of test compounds or the solvent only. Analyses of the cell lysates of the transiently transfected NIH3T3 cells were performed using the Luciferase Assay System (Promega) and Fluoroscan Ascent FL plate reader (Thermo LabSystems). […] However, consistent and reproducible data were obtained in different assays performed using several plasmid preparations, and we monitored protein concentration for yield in the cell extracts as well as expression of the tagged, exogenous protein by Western blotting.
The test system of test [11] is APP processing (α-secretase pathway, CTFs) in swAPP-HEK293 cells. Briefly: Western blot of APP, sAPPα, C83 and C99 in swAPP-HEK293 cells. As to conditions: swAPP-HEK293, 16 hours. On the technique in general: Immunoblotting shows a protein as a band on a membrane.
Description: swAPP-HEK293 cells were scraped and lysed in CelLytic-M (Sigma). Protein concentrations were determined by the Bradford procedure. Equal quantity of proteins were separated on a 10% SDS-PAGE gel and transferred to Hybond-C (Amersham Biosciences) membranes. After transfer, membranes were blocked with 5% nonfat milk and incubated overnight with the primary antibody anti-APP antibody at 1/1000 (Serotec), allowing the detection of both APP and C83-C99 CTFs under specific separation and exposure conditions. For sAPPα detection, cells were allowed to secrete for 7 h. Media were collected, centrifuged and then equal amount of secretate were loaded on 10% SDS-PAGE and Western blotted with 6E10 monoclonal antibody (1/1000).
The target of test [12] is RhoA (Homo sapiens, UniProt P61586). Particulars: Gao et al. 2004, Picard et al., submitted, cited from earlier work.
Sequence of RhoA (P61586 whole entry, species assumed): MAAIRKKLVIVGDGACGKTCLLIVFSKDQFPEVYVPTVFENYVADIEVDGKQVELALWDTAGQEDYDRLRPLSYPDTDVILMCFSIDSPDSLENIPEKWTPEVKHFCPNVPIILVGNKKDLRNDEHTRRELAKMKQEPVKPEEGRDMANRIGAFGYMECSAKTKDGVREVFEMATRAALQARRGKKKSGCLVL

Where two headings read alike, the source gives them in different places.

T1 sequence (P56817 46-501): as the sequence (P56817 46-501) above

“H-Glu-Val-Asn-Statine-Val-Ala-Glu-Phe-NH2 [BACE Inhibitor III, reference compound]”: the “cellular BACE activity (fluorescence)” value in test [1] is recorded as “inhibited”. The “BACE activity (cleavage of fluorogenic Substrate V)” value in [2] is recorded as “abolished the cleavage”.
On to `C[C@H](NC(=O)Cc1cc(F)cc(F)c1)C(=O)N[C@H](C(=O)OC(C)(C)C)c1ccccc1` [DAPT, N—[N-(3,5-Difluorophenacetyl-L-alanyl)]-S-phenylglycine t-Butyl Ester, reference compound], for which the “Aβ production (de novo Aβ 40 generation)” value in test [3] is listed as “completely inhibited”. In test [4], the “Notch cleavage (NICD by Western blot)” value is “potently inhibited”.
With `CN1CCN(Cc2cc(=O)c(OCCCCCOc3ncnc4ccccc34)co2)CC1` (racemic) [compound 53, 5-(5-(Quinazolin-4-yloxy)pentyloxy)-2-((4-methylpiperazin-1-yl)methyl)-4H-pyran-4-one], the “secreted Aβ 40 and Aβ 42” value in test [5] (swAPP-HEK293, 18 h, 20, 10 or 2 μM, qualitative) was “strictly inactive”. Further, the Rac1 activation entry in test [6] is “totally unable to inhibit Rac1 activation”. Also, the “de novo Aβ production from C99 (γ-secretase activity)” value in test [7] is reported as “did not affect γ-secretase activity”. Moreover, the “Aβ 40 and Aβ 42 intracellular levels” value in test [8] (swAPP-HEK293 cell lysates, normalized to cellular protein) was “strictly inactive”. Also, the “reducing Aβ levels” value in [9] was “strictly inactive”. In addition, in test [10], the “luciferase activity from all 3 reporter constructs” value is “did not change luciferase activity”.
Consider `CCN(CC)CCCC(C)Nc1nc(C)cc(Nc2ccc3nc(C)cc(N)c3c2)n1` (racemic) [compound 49], for which the “APP expression and maturation, α-secretase pathway (APP, C83, sAPPα)” value in [11] was “no alterations”. The “Notch cleavage (NICD by Western blot)” value in test [4] is “no alterations”. In [5] (Homo sapiens, read-out: IC50, secreted Aβ 40), the IC50 (commonly the concentration that gives 50% inhibition) was 48.9 µM. The inhibition (commonly how much of the control response was suppressed) at 50 µM in test [5] (Homo sapiens, read-out: inhibition of released Aβ 42) was 58%. The “secreted Aβ 40 levels” value in test [5] (swAPP-HEK293, various concentrations, qualitative) is recorded as “dose-dependently reduced secreted Aβ 40 levels”. For the same compound, the “extracellular levels of Aβ 42” value in test [5] (swAPP-HEK293, qualitative) is recorded as “dose-dependently decreased”. Besides, in test [12], the “activity on / interaction with RhoA” value is “does not interact with cdc42 and RhoA”. Further, in [12] (listed as NSC23766), the “activity on / interaction with RhoA” value is “not to affect the activity of Cdc42 or RhoA”. In test [8] (swAPP-HEK293), the “intracellular Aβ 40” value is “no intracellular accumulation of Aβ 40” and the “intracellular levels of Aβ 42” value is “dose-dependently decreased”.
